According to ChEMBL document CHEMBL5046263, “Characterization of the Aminosugar Biosynthetic and Regulatory Genes of Vicenistatin in Monodonata labio-Associated Streptomyces parvus SCSIO Mla-L010” (J Nat Prod, 2022):
≈ marks a conversion by molar mass, not a printed value.

Legend:
Bacillus subtilis = experiment: Antibacterial activity against Bacillus subtilis BS01 assessed as bacterial growth inhibition; assay type: functional
Micrococcus luteus = experiment: Antibacterial activity against Micrococcus luteus ML01 assessed as bacterial growth inhibition; assay type: functional
Staphylococcus aureus [1] = experiment: Antibacterial activity against Staphylococcus aureus ATCC 29213 assessed as bacterial growth inhibition; assay type: functional
Staphylococcus aureus [2] = experiment: Antibacterial activity against methicillin-resistant Staphylococcus aureus shhs-E1 assessed as bacterial growth inhibition; assay type: functional
Staphylococcus aureus [3] = experiment: Antibacterial activity against methicillin-resistant Staphylococcus aureus 16339 assessed as bacterial growth inhibition; assay type: functional
Staphylococcus aureus [4] = experiment: Antibacterial activity against methicillin-resistant Staphylococcus aureus 745524 assessed as bacterial growth inhibition; assay type: functional
Staphylococcus aureus [5] = experiment: Antibacterial activity against methicillin-resistant Staphylococcus aureus 16162 assessed as bacterial growth inhibition; assay type: functional
Staphylococcus aureus [6] = experiment: Antibacterial activity against methicillin-resistant Staphylococcus aureus 718306 assessed as bacterial growth inhibition; assay type: functional
Staphylococcus aureus [7] = experiment: Antibacterial activity against methicillin-resistant Staphylococcus aureus 6917 assessed as bacterial growth inhibition; assay type: functional
[8] = tested on: Mycolicibacterium smegmatis; experiment: Antibacterial activity against Mycobacterium smegmatis ATCC607 assessed as bacterial growth inhibition; assay type: functional
Helicobacter pylori [9] = experiment: Antibacterial activity against Helicobacter pylori G27 assessed as bacterial growth inhibition; assay type: functional
Helicobacter pylori [10] = experiment: Antibacterial activity against Helicobacter pylori 159 assessed as bacterial growth inhibition; assay type: functional
Candida albicans [11] = experiment: Antifungal activity against Candida albicans C5 assessed as fungal growth inhibition; assay type: functional
Candida albicans [12] = experiment: Antifungal activity against Candida albicans ATCC SC5314 assessed as fungal growth inhibition; assay type: functional
Cryptococcus neoformans = experiment: Antifungal activity against Cryptococcus neoformans ATCC4906 assessed as fungal growth inhibition; assay type: functional
MCF7 = experiment: Cytotoxicity against human MCF7 cells assessed as reduction in cell viability after 72 hrs by MTT assay; assay type: functional, cell-based; details: MCF7, 72 h
HepG2 = experiment: Cytotoxicity against human HepG2 cells assessed as reduction in cell viability after 72 hrs by MTT assay; assay type: functional, cell-based; details: HepG2, 72 h
HeLa = experiment: Cytotoxicity against human HeLa cells assessed as reduction in cell viability after 72 hrs by MTT assay; assay type: functional, cell-based
A549 = experiment: Cytotoxicity against human A549 cells assessed as reduction in cell viability by after 72 hrs MTT assay; assay type: functional, cell-based; details: A549, 72 h
RKO = experiment: Cytotoxicity against human RKO cells assessed as reduction in cell viability after 72 hrs by MTT assay; assay type: functional, cell-based
HL-60 = experiment: Cytotoxicity against human HL-60 cells assessed as reduction in cell viability after 72 hrs by MTT assay; assay type: functional, cell-based; details: HL-60, 72 h
[13] = Cytotoxicity against human L02 cells assessed as reduction in cell viability after 72 hrs by MTT assay; assay type: toxicity, cell-based
[14] = Cytotoxicity against human BEAS-2B cells assessed as reduction in cell viability after 72 hrs by MTT assay; assay type: toxicity, cell-based

SMILES | MIC (Bacillus subtilis) [µg/mL] | MIC (Micrococcus luteus) [µg/mL] | MIC (Staphylococcus aureus [1]) [µg/mL] | MIC (Staphylococcus aureus [2]) [µg/mL] | MIC (Staphylococcus aureus [3]) [µg/mL] | MIC (Staphylococcus aureus [4]) [µg/mL] | MIC (Staphylococcus aureus [5]) [µg/mL] | MIC (Staphylococcus aureus [6]) [µg/mL] | MIC (Staphylococcus aureus [7]) [µg/mL] | MIC [8] [µg/mL] | MIC (Helicobacter pylori [9]) [µg/mL] | MIC (Helicobacter pylori [10]) [µg/mL] | MIC (Candida albicans [11]) [µg/mL] | MIC (Candida albicans [12]) [µg/mL] | MIC (Cryptococcus neoformans) [µg/mL] | IC50 (MCF7) [nM] | IC50 (HepG2) [nM] | IC50 (HeLa) [nM] | IC50 (A549) [nM] | IC50 (RKO) [nM] | further results
C/C1=C\C=C\CC[C@H](C)CNC(=O)/C=C/C=C/[C@H](C)[C@@H](O[C@H]2C[C@H](O)[C@H](N)[C@@H](C)O2)C/C=C(\C)C1 | 0.5 (≈ 1.03 µM) | 0.25 (≈ 0.514 µM) | 0.13 (≈ 0.267 µM) | 0.25 (≈ 0.514 µM) | 0.5 (≈ 1.03 µM) | 0.25 (≈ 0.514 µM) | 0.25 (≈ 0.514 µM) | 0.25 (≈ 0.514 µM) | 0.13 (≈ 0.267 µM) | 4 (≈ 8.22 µM) | 1 (≈ 2.05 µM) | 1 (≈ 2.05 µM) | 2 (≈ 4.11 µM) | 1 (≈ 2.05 µM) | 2 (≈ 4.11 µM) | 1160 | 2090 | 1290 | 1330 | 2100 | IC50 (HL-60): 890 nM; IC50 at 72 h [13]: 5360 nM; IC50 at 72 h [14]: 3230 nM
C[C@@H]1[C@H](O)[C@@H](C)/C=C/C=C/C=C/C=C/C=C/C=C/C=C/[C@H](O[C@@H]2O[C@H](C)[C@@H](O)[C@H](N)[C@@H]2O)C[C@@H]2O[C@](O)(C[C@@H](O)C[C@@H](O)[C@H](O)CC[C@@H](O)C[C@@H](O)CC(=O)O[C@H]1C)C[C@H](O)[C@H]2C(=O)O [AMPHOTERICIN B] | – | – | – | – | – | – | – | – | – | – | – | – | 1 (≈ 1.08 µM) | 1 (≈ 1.08 µM) | 2 (≈ 2.16 µM) | – | – | – | – | – | –
CC1(C)S[C@@H]2[C@H](NC(=O)[C@H](N)c3ccccc3)C(=O)N2[C@H]1C(=O)O [AMPICILLIN] | – | – | – | – | – | – | – | – | – | 64 (≈ 183 µM) | 4 (≈ 11.4 µM) | 4 (≈ 11.4 µM) | – | – | – | – | – | – | – | – | –
CN[C@H](CC(C)C)C(=O)N[C@H]1C(=O)N[C@@H](CC(N)=O)C(=O)N[C@H]2C(=O)N[C@H]3C(=O)N[C@H](C(=O)N[C@H](C(=O)O)c4cc(O)cc(O)c4-c4cc3ccc4O)[C@H](O)c3ccc(c(Cl)c3)Oc3cc2cc(c3O[C@@H]2O[C@H](CO)[C@@H](O)[C@H](O)[C@H]2O[C@H]2C[C@](C)(N)[C@H](O)[C@H](C)O2)Oc2ccc(cc2Cl)[C@H]1O [VANCOMYCIN] | 0.13 (≈ 0.0897 µM) | 0.13 (≈ 0.0897 µM) | – | – | – | – | – | 0.25 (≈ 0.173 µM) | – | – | – | – | – | – | – | – | – | – | – | – | –
CN[C@H]1[C@@H](O)C[C@H](O[C@H]2C/C=C(\C)C/C(C)=C/C=C/CC[C@H](C)CNC(=O)/C=C/C=C/[C@@H]2C)O[C@@H]1C [VICENISTATIN] | 0.13 (≈ 0.26 µM) | 0.06 (≈ 0.12 µM) | 0.06 (≈ 0.12 µM) | 0.13 (≈ 0.26 µM) | 0.06 (≈ 0.12 µM) | 0.06 (≈ 0.12 µM) | 0.13 (≈ 0.26 µM) | 0.13 (≈ 0.26 µM) | 0.06 (≈ 0.12 µM) | > 64 | 1 (≈ 2 µM) | 1 (≈ 2 µM) | 4 (≈ 7.99 µM) | 4 (≈ 7.99 µM) | 2 (≈ 3.99 µM) | 800 | 2010 | 1380 | 760 | 2330 | IC50 (HL-60): 640 nM; IC50 at 72 h [13]: 890 nM; IC50 at 72 h [14]: 1400 nM
